# Source: patent US10058618B2, “PAK1-blocking 1,2,3-triazolyl esters” (priority 2016, dated 2018)
# Like-named read-outs stand apart in the source and are kept apart here.
# Columns and labels:
# [1] = system: A549 human lung cancer cells; test: Trypan Blue cell viability/growth assay, A549 cells; type: cell-based; conditions: for Potentiation of anti-cancer activity by esterization: ester vs original acid; for fold more potent than original acid, growth of A549 cells: ester vs original acid (ARC, CA or Ketorolac)
# Experimental: (§1) A. Cell Lines: Human lung cancer (A549) cells carrying an oncogenic K-RAS mutant or murine melanoma (B16F10) cells
# (§2) B. Cell seeding in 96 well plate: In culture medium D-MEM with or without 10% fetal bovine serum.
# (§3) C. Inhibitor Stocks in DMSO (100 mM)
# (§4) D. Trypan Blue Assay for Cell Viability/Growth (4): The most commonly used MTT assay for cell viability/growth is not feasible for cells treated with triazolyl derivatives, mainly because these compounds are reduced by mitochondrial reductase in viable cells, just like MTT, and converted to a purple compound which would clearly interfere with the colorimetry on which MTT assay depends. Thus, a more classic method called Trypan Blue exclusion assay should be used for determining cell viability/growth of cells treated with all triazolyl derivatives. In this assay, only dead cells are stained with Trypan Blue, while viable cells exclude this blue dye.
# (§5) The assay was conducted as previously described. Briefly, A549 or B16F10 cells were seeded at 2×10^4 cells/well in 96 well plate for 24 hrs in the above medium, and then treated with one of the tested compounds in the same medium for 96 hrs. Cell were detached from the plate by a protease called accutase, and stained with Trypan blue, and the number of unstained (viable) cells was counted in a hemocytometer.
# [2] = system: EMT6 breast cancer cells; test: Cell-permeability (intracellular uptake) assay by HPLC; type: in vitro ADME; conditions: for fold more cell-permeable than original acid: 100 uM, uptake during first 1 hr, lower bound
# Experimental: For measuring the uptake of both original acids and their esters into cells, a drug-resistant breast cancer cell line (EMT6) was chosen, as it survives the treatment with either acids or their esters at 100 uM for 24 hrs. The uptake of each compound (100 uM) into 1×10^5 cells mainly during the first 1 hr was quantitated by separation of either original acids or their esters taken by cells through HPLC column chromatography, and the amount of each compound was estimated by photometry at the wavelength 322 nm.
# [3] = molecular target: T1, recombinant human COX-2 (Homo sapiens, UniProt P35354); test: In vitro anti-COX-2 activity; type: biochemical
# T1 sequence (P35354 18-604): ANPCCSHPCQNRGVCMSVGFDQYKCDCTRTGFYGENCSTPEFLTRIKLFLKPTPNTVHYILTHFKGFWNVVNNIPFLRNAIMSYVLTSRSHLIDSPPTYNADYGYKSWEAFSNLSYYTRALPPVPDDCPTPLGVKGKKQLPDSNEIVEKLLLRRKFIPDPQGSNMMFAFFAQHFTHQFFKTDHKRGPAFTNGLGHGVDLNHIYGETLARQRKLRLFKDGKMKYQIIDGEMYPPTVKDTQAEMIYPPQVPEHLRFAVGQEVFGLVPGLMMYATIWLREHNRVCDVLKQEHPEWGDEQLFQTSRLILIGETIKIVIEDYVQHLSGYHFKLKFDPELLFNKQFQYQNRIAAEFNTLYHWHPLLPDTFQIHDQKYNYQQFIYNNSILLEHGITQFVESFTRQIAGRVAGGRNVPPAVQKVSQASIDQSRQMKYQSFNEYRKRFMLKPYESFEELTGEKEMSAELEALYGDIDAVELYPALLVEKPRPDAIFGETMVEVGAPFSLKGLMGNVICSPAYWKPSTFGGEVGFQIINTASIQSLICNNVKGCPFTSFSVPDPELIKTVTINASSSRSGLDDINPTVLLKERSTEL
# Experimental: The effect of Ketorolac and PRC-15K (both in racemic form) on COX-2 was assayed in vitro, essentially according to the procedure previously published (5). Briefly, the recombinant human COX-2 was treated with either Ketorolac or PRC-15K at concentrations ranging 5-200 nM for 2 or 5 min (depending on the chemical nature of the test compounds) at room temperature in the presence of arachidonic acid, to measure the remaining COX-2 activity at 590 nm. The COX-2 activity without these test chemicals was used as the negative control for calculating their anti-COX-2 activity.
# [4] = molecular target: T2, PAK1 (Homo sapiens, UniProt Q13153); test: Anti-PAK1 activity in cell culture, Macaroni-Western (IP) ATP-Glo kinase assay; type: cell-based
# T2 construct: endogenous in cells; host or cells: A549 human lung cancer cells
# Experimental: A. Cell line: Human lung cancer (A549) cells.
# B. Cell seeding in 6-well plate with the culture medium (D-MEM).
# C. Inhibitor Stocks in DMSO (100 mM).
# D. “Macaroni-western” (IP) ATP-Glo kinase assay: The kinase activity of PAK1 in A549 (or B16F100 cells was measured by a method called “Macaroni-Western” (IP) ATP-Glo kinase assay. Briefly, cells (2×10^5 cells/mL) were pre-cultured on 6-well plate for 24 hrs in the medium. Then cells were treated with a test compound in the same medium for additional 24 hrs. Cells were disrupted by lysis buffer containing 50 mM Tris-HCl pH 7.5 and 150 mM NaCl and 1% Triton-X. For the immunoprecipitation (IP) of PAK1, the cleared cell lysates were incubated with anti-PAK1 IgG (1:50 dilution) and protein A-agarose beads for 1-2 hrs in cold room with continuous shaking by a rotary mixer (Nissin, Suginami-ku, Tokyo, Japan). The resultant IP (PAK1) from each lysate was incubated with ATP-Glo kinase assay kit (Promega) in the presence of ATP and MBP (myelin basic protein) for 1 hr at 37° C., and the remaining ATP level was measured by the ATP-dependent Luciferin-Luciferase reaction which eventually generates a luminescence. The final suspension was centrifuged, and the supernatant was transferred to 96-well plate for reading. Luminescence was recorded by MTP-880Lab microplate reader (Corona, Hitachinaka-ku, Ibaraki, Japan) with an integration time of 0.5 s per well.
# [5] = system: melanoma (B16F10) cells; test: Trypan Blue cell viability/growth assay, B16F10 cells; type: cell-based, murine
# Experimental: as §1, §2, §3, §4, §5
# [6] = ester vs parent acid (CA or UA); cited from earlier work
# [7] = system: melanoma (B16F10) cells; test: Melanin content assay (PAK1-dependent melanogenesis), B16F10 cells; type: cell-based, murine; conditions: alpha-MSH 100 nM stimulated; read-out: IC50 against the PAK1-dependent melanogenesis of melanoma (B16F10) cells
# Experimental: A. Cell line: Murine melanoma (B16F10) cells.
# B. Cell seeding in 96 well plate: In culture medium D-MEM supplemented with 10% […] FBS (fetal bovine serum) and 1% penicillin/streptomycin (10,000 U/mL and 100 μg/mL). 2×10^4 cells were seeded in each well of 96 well plate in the medium at 37° C. for 24 hrs in a humidified atmosphere containing 5% CO2.
# C. Inhibitor Stocks in DMSO (100 uM).
# E. Melanin content Assay (4): The assay was performed as previously described. Cells were seeded in a 96-well plate at a density 5×10^4 cells/well in culture medium containing D-MEM supplemented with 10% FBS, 1% penicillin/streptomycin, and cultured for 24 hrs. Then, the cells were treated with a melanogenic stimulating hormone called α-MSH (100 nM), and treated with one of tested compounds for 48 hrs. After the medium was removed, cells were dissolved in 100 μL of 1 N NaOH. The mixture was heated at 90° C. for 1 hr, and the melanin content was estimated by reading the absorbance at 405 nm.
# [8] = system: Human follicle dermal papilla (HFDP) cells; test: Hair cell growth promoting (anti-alopecia) Trypan Blue assay, HFDP cells; type: cell-based
# Experimental: A. Cell line: Human follicle dermal papilla (HFDP) cells.
# B. Cell seeding in 96 well plate: In culture medium D-MEM medium containing 50 mL of papilla cell growth medium (PCGM), 0.5 mL of fetal calf serum (FSC), 0.5 mL of BPE, 0.25 mL of Cyp, and 0.25 mL of ITT in 51.5 mL total volume.
# C. Inhibitor Stocks in DMSO (100 μM).
# D. Trypan Blue assay for cell viability/growth (4): HFDP cells were collected and diluted in medium containing Dulbecco's modified minimum essential medium (D-MEM) and 10% fetal bovine serum (FBS) at cell density of 1×10^4 cell/mL. Then, 200 μL of cell suspension (2,000 cells/well) was transferred into each well of collagen-coated 96 well plate, and cells were incubated for 37° C., under 5% CO2 for 3 days. The medium was removed, and 200 μL of samples prepared in D-MEM only was added. After 4 days incubation, cell were detached from the plate by a protease called accutase, and stained with Trypan blue, and the number of unstained (viable) cells was counted in a hemocytometer.
# [9] = Homo sapiens, growth of A459 lung cancer cell line (so in the source), read-out: IC50 of Original Acids
# [10] = 96 hrs treatment, Trypan Blue exclusion, read-out: IC50 against the growth of A549 human lung cancer cells
# T2 sequence (Q13153 whole entry): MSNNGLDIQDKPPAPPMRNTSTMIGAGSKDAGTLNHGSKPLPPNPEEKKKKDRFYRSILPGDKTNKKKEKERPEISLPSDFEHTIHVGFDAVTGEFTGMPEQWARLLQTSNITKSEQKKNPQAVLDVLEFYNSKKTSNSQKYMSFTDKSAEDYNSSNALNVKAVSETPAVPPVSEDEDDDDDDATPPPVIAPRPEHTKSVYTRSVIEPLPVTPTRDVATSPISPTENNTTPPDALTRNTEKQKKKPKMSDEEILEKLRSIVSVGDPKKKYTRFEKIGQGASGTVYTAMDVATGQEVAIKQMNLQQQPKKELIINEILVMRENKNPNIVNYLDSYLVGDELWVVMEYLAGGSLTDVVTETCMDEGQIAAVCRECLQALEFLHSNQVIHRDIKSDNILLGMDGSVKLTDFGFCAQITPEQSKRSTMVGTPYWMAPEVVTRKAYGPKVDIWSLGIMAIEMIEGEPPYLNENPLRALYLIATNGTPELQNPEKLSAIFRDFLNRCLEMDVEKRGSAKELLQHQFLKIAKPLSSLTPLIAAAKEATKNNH
smiles,measurement,setting,value
"O=C(c1ccccc1)c1ccc2n1CCC2C(=O)O (racemic) [Ketorolac, 5-benzoyl-2,3-dihydro-1H-pyrrolizine-1-carboxylic acid, reference compound]",IC50,"[1]; Homo sapiens, A549, racemic mixture, our unpublished observation, read-out: IC50 against the growth of human cancer cells",13000 nM
same,IC50,[1]; [9],13000 nM
COc1ccccc1-n1cc(COC(=O)C2CCn3c(C(=O)c4ccccc4)ccc32)nn1 (racemic) [PRC-15K],fold more cell-permeable than original acid,[2],at least 10 fold
same,IC50,"[1]; A549, 50/50 racemic mixture, growth of human cancer cells, read-out: IC50",~24 nM
same,IC50,"[1]; Homo sapiens, A549, 96 hrs treatment, Trypan Blue exclusion, read-out: IC50 against the growth of A549 human lung cancer cells",24 nM
same,IC50,"[1]; Homo sapiens, growth of A459 lung cancer cell line (so in the source), read-out: IC50 of Esters",24 nM
same,Potentiation of anti-cancer activity by esterization,[1],(>500 fold)
same,"fold more potent than original acid, growth of A549 cells",[1],over 500 fold
same,times potent as much as compound 7,[1]; vs racemic ketorolac,more than 500 times
same,IC50,"[3]; in vitro, racemic form, read-out: IC50 against human COX-2",6 nM
same,"fold more potent than Ketorolac, anti-COX-2",[3]; vs Ketorolac,over 20 fold
same,inhibition at 0.07 µM,[4]; at 70 nM,~50%
same,"fold more potent than Ketorolac, anti-PAK1 activity in cell culture",[4]; vs Ketorolac,over 30 fold
same,IC50,"[5]; Mus musculus, B16-F10, read-out: IC50 against the PAK1-independent growth of melanoma (B16F10) cells",5 nM
same,"fold more potent than Ketorolac, growth of B16F10 cells",[5]; vs Ketorolac,over 6000 fold
"CC(C)=CCc1cc(C=CC(=O)O)cc(CC=C(C)C)c1O [ARC, 3,5-diprenyl-4-hydroxycinnamic acid, reference compound]",IC50,[1]; [9],25000 nM
"O=C(O)/C=C/c1ccc(O)c(O)c1 [CA, caffeic acid, reference compound]",IC50,[1]; [9],100000 nM
"O=C(/C=C/c1ccc(O)c(O)c1)OCCc1ccccc1 [CAPE, caffeic acid phenethyl ester]",fold more potent (cell-permeable) than parent acid,[6],10 fold
COc1ccccc1-n1cc(COC(=O)/C=C/c2cc(CC=C(C)C)c(O)c(CC=C(C)C)c2)nn1 [PRC-15A],fold more cell-permeable than original acid,[2],at least 8 fold
same,IC50,[1]; [10],250 nM
same,Potentiation of anti-cancer activity by esterization,[1],(100 fold)
same,"fold more potent than original acid, growth of A549 cells",[1],100 fold
same,IC50,[7],250 nM
same,"anti-PAK1 activity in cell culture, inhibition",[4]; at 1 mM,around 45%
same,ED for the growth of human hair (HFDP) cells,[8]; growth promotion,20 nM
same,"fold more potent than ARC, growth of HFDP cells",[8]; vs ARC,1000 fold
COc1ccccc1-n1cc(COC(=O)/C=C/c2ccc(O)c(O)c2)nn1 [PRC-15C],fold more cell-permeable than original acid,[2],at least 20 fold
same,"fold more cell-permeable than original acid, probable upper estimate",[2]; 'probably up to',up to 70 fold
same,IC50,[1]; [10],225 nM
same,Potentiation of anti-cancer activity by esterization,[1],(>400 fold)
same,"fold more potent than original acid, growth of A549 cells",[1],over 400 fold
same,IC50,[7],225 nM
same,"anti-PAK1 activity in cell culture, inhibition",[4]; at 1 μM,around 35%
